What was measured:
[1] = tested on: E-selectin; experiment: TNFα-induced E-selectin expression on HAECs (ELISA); format: cell-based, human; settings: 10 μM
Procedure: Inhibition of TNFα-stimulated endothelial cell activation by compounds was assessed by measuring surface expression of cell adhesion molecules with an ELISA. Human arterial endothelial cells (HAECs) in growth medium (Cell Applications Inc.) were seeded into 96-well plates at a density of 10,000 cells per well. Plates were incubated overnight at 37° C. in a humidified incubator to allow for cells to become confluent. On the morning of the experiment, TNFα (10 μl, 2 ng/ml) was added to each well, which contained 100 μl of medium. Compounds were diluted in DMSO-containing medium (2.5% DMSO) to give a compound concentration of 100 and 300 μM. Compounds were added to wells so that final concentrations were 10 and 30 μM. DMSO-containing medium alone was added to zero concentration control wells. All samples were measured in quadruplicate (4 wells per treatment).
After incubation with compound for 4 hours, medium was removed and cells were probed with either non-specific IgG or specific mouse antibodies against VCAM, ICAM or E-selectin (BD Biosciences—0.1 μg in 100 μL buffered saline with 10% heat-inactivated human serum). Adhesion molecule expression was detected by addition of sheep anti-mouse antibody/horseradish peroxidase conjugate. […] Optical density was measured at 405 nm with an ELISA reader (Titertek Multiscan, Flow Laboratories).

[2] = tested on: TNFα, IL-6 and P-cadherin mRNAs; experiment: UVB psoriasis model: RT-PCR of TNF-α, IL-6 and P-cadherin mRNAs in skin; format: in vivo, mouse; settings: 20 μM lotion topical at 0, 1 and 2 h post-irradiation
Description: Inbred, 6-8 weeks of age female C57/BL6, C3H/HeN and Skh:hr-1 (hairless) mice were fed normal stock rodent rations and tap water ad libitum. One day prior to UVB irradiation, the dorsal hair of C57/BL6 and C3H/HeN mice was removed by clipping. A single UVB tube (Phillips TL-40W/12 RS, Eindhoven, The Netherlands) emitting a spectrum of 280-365 nm with a peak emission at 310 nm, was used as the light source for the experiments. The radiation was filtered through a sheet of 0.125 mm cellulose acetate (Grafix Plastics, OH, USA) to block wavelengths below 290 nm. Irradiance was measured with an IL 1500 radiometer (International Light Inc. Newburyport, Mass.) with a UVB detector (SEE 240/UVB) calibrated to the spectral output, and recorded as 1.71×10-4 W/cm2. Groups of three female C57/BL6 and C3H/HeN mice were exposed unrestrained in their cages to 7.24 kJ/m2 UVB radiation equal to 3× the minimal erythemal dose (MED) in these haired mice (fur clipped), an exposure of approximately 70 min. Control mice were clipped of fur in the same manner but were not exposed to UVB irradiation. Groups of 3 Skh:hr-1 mice received 3.59 kJ/m2 of UVB, which is equal to 3×MED on hairless mouse skin. Temperature under the radiation source was stabilised during the exposures with surrounding curtains and an electric fan.
Cpd. […]

SMILES | TNFα-induced E-selectin expression [1] | production of TNFα, IL-6 and P-cadherin mRNAs post-UVB [2]
COc1ccc(C2=Cc3ccc(O)cc3OC2)cc1OC [Cpd. 18, 7-Hydroxy-3′,4′-dimethoxyisoflav-3-ene] | inhibited | markedly reduced
Oc1ccc(C2=Cc3ccc(O)c(Br)c3OC2)cc1 [Cpd. 20, 4′,7-Dihydroxy-8-bromoisoflav-3-ene] | inhibited | –

From patent publication US20090233999A1, “COMPOSITIONS AND THERAPEUTIC METHODS INVOLVING ISOFLAVONES AND ANALOGUES THEREOF” (NOVOGEN RESEARCH PTY LTD, priority 1999, published 2009)
